# Results reported in ChEMBL document CHEMBL6087385, “Synthesis and biological evaluation of Ribo 7-N/O/S pyrimidine 9-deaza C-nucleoside analogs as new antiviral agents for inhibiting HCV RNA-dependent RNA polymerases” (Eur J Med Chem, 2024).
# Legend:
# [1] = Oral bioavailability in mouse at 5 mg/kg by reverse phase chromatography; assay type: ADME, organism-based; settings: in vivo
# [2] = target: hERG potassium channel (KCNH2) (Homo sapiens, UniProt Q12809); test: Inhibition of hERG potassium channel expressed in HEK cells at 100 uM relative to control; assay type: toxicity, cell-based; settings: HEK cells expressing hERG
# Sequence of hERG potassium channel (KCNH2) (Q12809 whole entry): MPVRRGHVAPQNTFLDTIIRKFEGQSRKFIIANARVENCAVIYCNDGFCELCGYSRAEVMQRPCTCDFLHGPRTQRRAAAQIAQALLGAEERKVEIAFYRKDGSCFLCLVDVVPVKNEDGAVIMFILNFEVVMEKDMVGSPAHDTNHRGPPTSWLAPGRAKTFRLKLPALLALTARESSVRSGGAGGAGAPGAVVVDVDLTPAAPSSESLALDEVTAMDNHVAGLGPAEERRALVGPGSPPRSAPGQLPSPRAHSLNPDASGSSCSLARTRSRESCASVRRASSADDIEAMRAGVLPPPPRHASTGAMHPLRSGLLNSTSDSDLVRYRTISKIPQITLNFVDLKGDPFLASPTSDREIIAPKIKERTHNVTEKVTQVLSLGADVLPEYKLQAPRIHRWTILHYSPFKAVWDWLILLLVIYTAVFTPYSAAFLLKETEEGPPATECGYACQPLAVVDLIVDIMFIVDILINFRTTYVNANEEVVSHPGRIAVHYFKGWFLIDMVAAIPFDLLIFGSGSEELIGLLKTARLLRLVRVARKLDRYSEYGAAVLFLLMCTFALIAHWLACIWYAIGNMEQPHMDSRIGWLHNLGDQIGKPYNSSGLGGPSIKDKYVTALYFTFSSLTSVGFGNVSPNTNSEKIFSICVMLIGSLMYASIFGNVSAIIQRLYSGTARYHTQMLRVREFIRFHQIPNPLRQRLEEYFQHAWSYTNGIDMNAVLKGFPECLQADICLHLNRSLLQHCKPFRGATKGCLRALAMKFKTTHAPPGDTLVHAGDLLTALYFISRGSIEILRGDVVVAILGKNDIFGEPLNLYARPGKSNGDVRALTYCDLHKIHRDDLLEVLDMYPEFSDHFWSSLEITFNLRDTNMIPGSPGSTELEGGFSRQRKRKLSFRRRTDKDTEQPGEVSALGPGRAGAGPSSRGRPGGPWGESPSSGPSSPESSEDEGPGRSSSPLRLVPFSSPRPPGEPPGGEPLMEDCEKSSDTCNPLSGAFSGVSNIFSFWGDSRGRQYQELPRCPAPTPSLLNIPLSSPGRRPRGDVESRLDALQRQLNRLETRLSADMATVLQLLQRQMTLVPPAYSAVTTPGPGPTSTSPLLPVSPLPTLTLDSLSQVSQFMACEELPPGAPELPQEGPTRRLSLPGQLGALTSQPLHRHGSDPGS
# [3] = AUC in Sprague-Dawley rat at 5 mg/kg, po by reverse phase chromatography; assay type: ADME, organism-based; settings: in vivo
# [4] = Toxicity in Sprague-Dawley rat assessed as animal death at 90 to 250 mg/kg, po administered as single dose and measured after 14 days; assay type: organism-based; settings: in vivo, 336 h, dose 90-250 mg/kg, time 14 day
smiles,measurement,setting,value
C[C@@]1(O)[C@H](O)[C@@H](CO)O[C@H]1c1coc2c(N)ncnc12,bioavailability,[1],75%
same,inhibition at 100 µM,[2],1.3%
same,AUC,[3],1.92 µg·h/mL
same,Activity,[4],Non-toxic
